Test results from US20230121867A1, “COMPOSITIONS AND METHODS FOR TREATING DISEASES AND CONDITIONS BY DEPLETION OF MITOCHONDRIAL OR GENOMIC DNA FROM CIRCULATION” (Cedars-Sinai Medical Center, priority 2019, published 2023).

Assays:
[1] = system: TRAMPC2 with wild type fibroblasts allografts; test: Sub-renal capsule allograft of TRAMPC2 with wild type fibroblasts in C57BL/6 mice; type: in vivo, mouse
Description: FIG. 3, panels A-E, depicts Role of C3a in PCa progression. A PCa cell lines incubated in the absence and presence of C3a receptor agonist peptide (48 hr) was western blotted for cell survival and proliferation protein expression. B C57BL/6 mice were allografted with tissue recombinants of luciferase-expressing TRAMPC2 with wild type (wt) or Tlr9^-/-fibroblasts. The mice were treated with saline or […], SB290157. Luciferase bioluminescence was used to image tumor progression. C Mean tumor volume (mm^3) and standard deviation (S.D.) for each treatment condition are depicted (n=8). D H&E and immunohistochemistry for phosphorylated-AKT, phosphorylated-histone-H3 and TUNEL staining of the tumor tissues were performed and quantitated. […] The scale bar represents 10 µm.
To validate the observation of C3a signaling, we allografted mouse prostatic fibroblasts with PCa epithelia into syngeneic C57B/6 mice. We grafted either wild type or TLR9-knockout fibroblasts and recombined them with luciferase-expressing TRAMPC2 cells under the renal capsule. After the tumors were visible by bioluminescent imaging, the mice were treated with either vehicle (control) or SB290157, a C3aR antagonist. […] We were only able to perform immunohistochemistry on the grafts with wild type fibroblasts and TRAMPC2, as not enough tissue was available from grafts with TLR9-knockout fibroblasts. […] The activation of AKT, localized by phosphorylated AKT staining, was elevated in the tumor cells of mouse allografted with wild type fibroblasts and reversed in SB290157 treated mice.
Complement anaphylatoxins have a wide spectrum of proinflammatory effects. C3a is particularly regarded for the chemotaxis of mast cells, basophils and eosinophils. As T lymphocytes are confirmed regulators of tumor progression and known to respond to C3a, we measured the impact of C3a antagonism on T cell recruitment to the tumors.

PC3 cells = test: MTT viability drug interaction study, Chou-Talalay method; type: cell-based; conditions: low doses of SB290157 with docetaxel
Description: (§1) Significance was determined by repeated measures ANOVA.
Statistical analysis: Experiments were done a minimum of three times. Results were shown in terms of mean ± S.D. Student’s t-test and one-way ANOVA were used for comparisons among groups and repeated measured ANOVA was applied for determining the significance of two or more data series. Statistical tests utilized are reported in the figure legends, along with the associated P values was performed by using Origin software (OriginLab, Northampton, MA). Cell viability was examined by using MTT assay as indicated by the manufacturer (Thermo Fisher, Canoga Park, CA) for the calculation of synergistic drug interactions was performed by Chou-Talalay method (R Package).

PC3 and CAF co-culture = test: 3D organotypic co-culture of PC3 and CAF, EpCAM+/Ki67+ FACS; type: cell-based; conditions: PC3 and CAF 3D co-culture, 48 hours
Description: as §1
3D organotypic co-culture: 3D organotypic co-culture was performed in a collagen matrix. PC3 and CAF were combined in a 1:3 ratio in collagen matrix contain 50% rat tail collagen I, 20% of matrigel, 10% of 10x DMEM medium and 1x ready DMEM 5%, 1x ready RPMI 5%, FBS 5% and Nu serum 5%. Cells were treated with docetaxel and SB290157 for 48 hours after 72 hours of expansion in the matrix. The cells were dissociated from the matrix with collagenase and dispase for Ki67 FACS analysis.

[2] = system: xenografts of CAF and PC3 cells; test: Subcutaneous xenograft of PC3 and CAF in male nude mice
Description: A Subcutaneous xenografts of PC3 and CAF tumor volumes were longitudinally measured. […] Representative images show each group of mice (inset). […] C Immunolocalization ofphosphorylated-TAK1, complement C3, phosphorylated-AKT, phosphorylated-histoneH3 and TUNEL expression in tumor tissues (brown) was counterstained with hematoxylin (blue). The corresponding bar graph illustrate the mean and S.D. expression of the respective staining (n=5). Data represent the mean ± S.D. by one-way ANOVA (*P <0.05; **P <0.01). The scale bar represents 10 µm.
Data represent the mean ± S.D. among groups by oneway ANOVA (ns - not significant). C H&E images of resulting tumors from each treatment group of subcutaneous xenografted mice.
Animal experiments and cultured cells: Male C57BL/6 mice aged 7-8 weeks were housed in a pathogen-free environment at the Cedars-Sinai Medical Center Animal Facility under the approval of the Institutional Animal Care and Use Committee (# 3679). Sub-renal capsule was performed with wild type mouse fibroblasts (6×10^5) or TLR9^-/- mouse fibroblasts (6×10^5) combining with mouse prostate epithelial cell TRAMP-C2 (2×10^5) . Treatment with SB290157 (1 mg/kg; i.p. daily) was started after two weeks of grafting and continued for five weeks. All mouse kidney, spleen, lymph nodes were harvested after five weeks of treatment were fixed in paraffin embedded for IHC or dissociated for FACS analysis. Subcutaneous xenograft was done in male nude mice aged 7-8 weeks in combination of PC3 (5×10^5) and CAF (15×10^5). […] Harvested tissues were fixed in paraffin embedded for IHC or dissociated for immunoblot analysis.
Immunodetection: Paraffin embedded tissue were processed for Immunohistochemical localization was performed with antibodies against p-AKT, p-TAK, p-histoneH3 (Cell Signaling, Danvers, MA), C3 (Santa Cruz Biotechnology, Santa Cruz, CA), and TUNEL (Thermo Fisher Scientific Inc.) as previously described before (52, 53). All the slides were scanned using Leica SCN400 (Leica Micro System, Buffalo Grove, IL) and analyzed by Tissue IA Optimizer (Leica). The values of positively stained cells were measured in an unbiased manner. C3a concentration of cultured medium and serum was assayed by sandwich ELISA using human C3a ELISA kit (BD Bioscience, San Jose, CA) according to the manufacturer’s instructions. Western blots separated by 10, 12, or 15% SDS-polyacrylamidegels were incubated with primary antibodies for TLR9, DEC205 (LS Bio Seattle, WA), phospho-TAK1, TAK1, phospho-AKT, AKT, phosphor-ERK1/2, ERK, BCL2, beclin, CHOP (Cell Signaling), LC3 (Abcam, Cambridge, MA), C3 (Santa Cruz Biotechnology) and p62 (ProgenBiotechnik, Heidelberg, Germany). Western blots were visualized using alkaline phosphatase-conjugated secondary antibodies (Sigma-Aldrich). The ELISA for anaphylatoxin C3a for performed according to manufacturer guidelines (LSBio Inc.).

[3] = western blot, SB290157 with docetaxel

`NC(N)=NCCC[C@H](NC(=O)COCC(c1ccccc1)c1ccccc1)C(=O)O` [SB290157] was tested, and the tumor size ([1]; 1 mg/kg i.p. daily, versus vehicle treated mice) was “significantly smaller tumor size”, the “CD3+ T cells recruited to the tumors” value ([1]; FACS of tumor tissues) was “similarly recruited” and the “CD8+ T cell activation (CD69+ expression)” value ([1]; FACS of tumor tissues) was “appreciably downregulated”. The “activation of AKT (phosphorylated AKT staining)” value ([1]; immunohistochemistry of grafts) was “reversed”, the “cell death (TUNEL staining)” value ([1]; immunohistochemistry of grafts) was “elevate cell death” and the “tumor cell mitosis (phosphorylated-histone H3 expression), tumor proliferation” value ([1]; immunohistochemistry of grafts, 1 mg/kg i.p. daily, 1 mg/kg) was “significantly diminish tumor proliferation”. The “tumor cell mitosis (phosphorylated-histone H3 expression), tumor proliferation” value ([1]; immunohistochemistry of grafts, 1 mg/kg i.p. daily, listed as SB29157, 1 mg/kg) was “significantly lower”, the “fractional inhibitory concentration index” value (PC3 cells) was < 0.5 and the “EpCAM+/Ki67+ proliferative epithelial fraction” value (PC3 and CAF co-culture) was “restored the sensitivity of PC3 cells to docetaxel”. The “apoptosis (TUNEL)” value ([2]; SB290157 with docetaxel compared to docetaxel alone) was “did not result in greater apoptosis”, the tumor growth ([2]; combined treatment of docetaxel (6 mg/kg/week) and SB290157 (1 mg/kg IP every day), P < 0.05) was “significantly limited tumor growth” and the “phosphorylation of AKT and phosphorylated histone-H3 (cell survival pathway and mitosis)” value ([2]; immunohistochemistry, combined treatment of docetaxel and SB290157 versus docetaxel) was “significantly diminished”. For the same compound, the “AKT and ERK1/2 phosphorylation in tumor tissues” value [2, 3] was “reduced AKT and ERK1/2 phosphorylation” and the “Blc2 in tumor tissues” value [2, 3] was “reduced”.
